Results: PubChem BioAssay AID1933 (Broad Institute, 2009)
Records with an inconclusive call do not appear. The source made the active and inactive calls. No rule for the calls is given here.

System: BJ-TERT fibroblast viability, ATP luminescence
Assay: BJ-TERT fibroblast viability loss – cell-based, RAS-independent, luminescence, dose response (AID 1933)

Structure (SMILES): COc1cc2c(c(OC)c1OC)-c1ccc(O)c(=O)cc1C(NC(C)=O)CC2 (configuration not stated)
- EC50: < 0.12 µM

Structure (SMILES): CCSc1nc2ccccc2n1C(=O)/C=C/c1ccc(OC)c(OC)c1
- EC50: > 15 µM (inactive)
